Here are results for one molecule from patent publication US12251366B1, “Sulforaphane-cysteine for wound healing in diabetic subjects” (KUWAIT UNIVERSITY, priority 2024, dated 2025).

Data set [1] is described as follows: Pain threshold in diabetic rats (diabetic neuropathy). It is filed as in vivo. The conditions noted are these: 5 μmol/rat. The text has this:
(§1) Therapeutic rational was considered for SFN-Cys effectiveness in the following pathological conditions: Sarcopenia-SFN-Cys increased muscle weight in diabetic mice, see FIGS. 4A and 4B; Cardiac fibrosis-SFN-Cys inhibits transforming growth factor beta (TGF-β) expression, see FIG. 4C; Erectile dysfunction-SFN-Cys increased endothelial nitric oxide activity and expression in corpus cavernosum.

The test system of data set [2] is transforming growth factor beta (TGF-β). The experiment in a line: TGF-β expression (cardiac fibrosis). It is filed as in vivo.
From the text: as §1

Data set [3] concerns Vimentin-TGF-β-Slug signaling pathway. The experiment in a line: Vimentin-TGF-β-Slug signaling in diabetic wound biopsies. The data set is classed as in vivo, rat. Particulars: semi-chronic administration. The text has this: Although the molecular mechanism by which SFN-Cyst enhanced wound healing potential was not fully explored in this study, it is possible to involve the Vimentin-TGF-β-Slug signaling pathway. Vimentin is an intermediate filament protein that participates in several cellular processes essential for wound healing, including cell proliferation, adhesion, migration and cytoskeletal rearrangement. Moreover, vimentin also amplifies epithelial-mesenchymal-transition via enhancing TGF-β-Slug signaling. […] A similar reduction in TGF-β-Slug signaling level was also evident in this disease state (FIG. 3D).
(§2) Total RNA from cells or frozen sponge implants was extracted using the Trizol reagent (Invitrogen), and the RNA integrity was verified by agarose gel electrophoresis. Approximately 1 μg of RNA was reverse transcribed (Superscript II Reverse Transcriptase Kit, Invitrogen) and amplified using the TaqMan Assay on Demand (Applied Biosystems) in a 25 μL reaction volume containing two unlabeled primers, a 6-carboxyfluorescien-labeled TaqMan MGB probe and the master mix. The amplified sequences were assessed using the ABI 7500 Prism Sequence Detection system machine. The results were expressed as mRNA levels normalized to 18S or GAPDH in each sample.

Data set [4] in a line: Blood tests on plasma after 21 days of SFN-Cys diet. The data set is classed as in vivo. The conditions noted are these: mice, diet 7.5 mg/kg food, mean±SEM. As to the method:
To strengthen this conclusion, extensive measurements were conducted on plasma levels of key parameters of kidney and liver toxicities in addition to the lipid and carbohydrate profiles.
For dietary treatment with SFN-Cys, the SFN-Cys was mixed with a powdered diet (7.5 mg of SFN-Cys per kg of food). The estimated dose delivered by this diet was about 1.0-1.5 mg/kg. The diet was stored at 4° C. and the feeders were refilled daily. Control animals received diet alone. Body weights were recorded twice a week and at the termination of the study, blood was drawn in EDTA-containing tubes, plasma was collected by centrifugation and stored at −80° C. until analysis.
Blood tests were performed on hemolysis free plasma samples obtained from animals receiving 21 days of a normal diet or a diet containing 7.5 mg/kg food of SFN-Cys using commercially available kits.

For data set [5], the system named is IL-6. The experiment in a line: Real-time PCR, LPS-induced IL-6 mRNA in peritoneal macrophages. The data set is classed as cell-based, mouse. The conditions noted are these: LPS 100 ng/mL, 1.5 umol/L, RT-PCR. On the procedure:
Additional tests were conducted to determine whether SFN-Cys also suppresses TNF-α and IL-6 expression at the mRNA level.
Thioglycollate-elicited mouse peritoneal macrophages were prepared from C57BL (8-10 weeks old) and cultured in RPMI 1640 with 10% (v/v) FCS Bone marrow-derived macrophages were generated in RPMI medium containing M-CSF (10 ng/mL) according to previously published procedure. For cytokine ELISA assay, cells were seeded at 5×10^5 in 12-well plates, whereas for mRNA expression, the cells were seeded at […]. LPS and used at a dose of 100 ng/mL. Similarly. SFN-Cys was used at a concentration of 1.5 umol/L.
as §2

In data set [6] the test system is heme oxygenase (HO). The experiment in a line: mRNA expression of Nrf2 target gene HO in fibroblasts. The data set is classed as cell-based, rat. Particulars: diabetic fibroblasts, 1.5 μM. On the procedure:
To better characterize how SFN-Cys impacts cellular antioxidant levels, the ability of SFN-Cys to regulate the transcription factor nuclear factor erythroid 2-related factor 2 (Nrf2) was assessed, which is a master regulator of the antioxidative stress response that induces the expression of antioxidant proteins such as heme oxygenase (HO) and NAD(P)H dehydrogenase (quinine; NQO1) and key enzymes in the glutathione system. In this context, Nrf2 transcriptional activity was first measured using a vector encoding luciferase driven by the NQO1 promoter. […] Administration of SNF-Cyst at the above indicated concentration (1.5 μM, the lowest effective concentration) ameliorated diabetes-induced suppression of the Nrf2 activity and Nrf2-target genes including HO and NQO1 (FIG. 2A-D).
Total RNA from cells or frozen sponge implants was extracted using the Trizol reagent (Invitrogen), and the RNA integrity was verified by agarose gel electrophoresis. […] The amplified sequences were assessed using the ABI 7500 Prism Sequence Detection system machine. The results were expressed as mRNA levels normalized to 18S or GAPDH in each sample.

The subject of data set [7] is fibroblasts (CF, DF). The experiment in a line: In vitro wound healing repair assay (cell migration). The data set is classed as cell-based, rat. The conditions noted are these: 1.5 μM, 24 hrs. On the procedure:
Successful wound healing necessitates a series of tightly coordinated and overlapping processes including inflammation, new tissue formation and remodeling. Fibroblasts, in response to growth factors-released mostly by macrophages, migrate to the site of injury, where they proliferate and lay down the extracellular matrix (ECM). Consequently, this facilitates cell migration and tissue reconstruction. The effect of a therapeutic concentration of SFN-Cys (1.5 μM) was investigated on the proliferation of fibroblasts isolated from the granulation tissue of control and diabetic wounds. Similarly, the effect of SFN-Cys on cell migration in the in vitro wound closure assay was also considered. […] Accordingly, in vivo wound closure properties of SFN-Cys were examined using an excisional wound healing rat model. SFN-Cys containing Pluronic acid was topically applied to the wound at a dose of 1.5 μmol concentration and the wound closure area was digitally photographed and quantified. Digital photographs were obtained on day-0 through day-7 of post wounding. […] In this context, the wound healing time-course was faster in SFN-Cys containing Pluronic acid than the Pluronic acid alone (FIG. 3C). […]
Fibroblasts (1×10^5/well) were cultured until confluence. […] The closure of the wounded area was calculated using Image J software (NIH). Data are expressed as a percent of wound closure.

Each structure is given as a SMILES string.

As for `C[S+]([O-])CCCCNC(=S)SCC(N)C(=O)O` (centres unmarked) [SFN-Cys, Sulforaphane-Cysteine], the pain threshold entry in data set [1] was “elevated”. In addition, the TGF-β expression result in data set [2] is “inhibits”. The “deficit in Vimentin-TGF-β-Slug signaling” value in data set [3] is on record as “ameliorated”. Besides, in data set [4], the “Plasma Alanine aminotransferase” value came out at 44.5 ± 17 IU/L, the “Plasma Alkaline phosphatase” value is 27 ± 15 IU/L, the “Plasma Aspartate aminotransferase” value came out at 172 ± 25 IU/L and the “Plasma Creatinine” value turned out to be 8.87 ± 0.91 µmol/L. In data set [4], the “Plasma Free fatty acid” value turned out to be 0.41 ± 0.14 mmol/L, the “Plasma Glucose” value was 5.87 ± 0.90 mmol/L, the “Plasma Ketone bodies” value is reported as 0.079 ± 0.01 mmol/L and the “Plasma Total bilirubin” value was found to be 4.23 ± 0.48 µmol/L. In data set [4], the “Plasma Total cholesterol” value is recorded as 2.15 ± 0.42 mmol/L and the “Plasma Triglyceride” value stood at 1.15 ± 0.25 mmol/L. Besides, in data set [5], the “LPS-induced IL-6 mRNA up-regulation” value was “significantly inhibited”. Moreover, in data set [6], the “mRNA expression of Nrf2 target gene HO” value is listed as “ameliorated”. Also, the “percentage of increase in cell migration, diabetics versus controls” value in data set [7] is on record as “greater in diabetics as compared to controls”. Besides, the “cell migration (in vitro wound closure)” value in data set [7] (CF and DF) is listed as “enhanced cell migration not only in control but also in diabetic fibroblasts”.
